Laboratory results: patent US11578055B2, “Triazacyclododecansulfonamide (“TCD”)-based protein secretion inhibitors” (KEZAR LIFE SCIENCES, priority 2018, dated 2023)
Read-outs that look alike come from different tables or passages of the source.

How the values were obtained:
[1] = test system: PD1 signal sequence plus 10 amino acids fused to Gaussia Luciferase (PD1-ss+10aa/Gaussia Luciferase); test: Dox Induced PD1-ss-Gluc Assay; type: cell-based; settings: 24 hr, read-out: 24 hr Dox Inducible PD1ssGluc 293FRT/TO: Mean IC50
Method in brief: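 Stable Flp-In 293 T-REx line expressing the fusion under tetracycline-inducible control, plated the day before assay. Compound dilutions added with doxycycline and incubated at 37 °C, 5% CO2; unspecified stereocentres mean data refer to stereoisomer mixtures.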

[2] = test system: full length PD1 (amino acids 1-288) fused to Firefly Luciferase; test: Dox Induced PD1-FL-Gluc Assay; type: cell-based; settings: 24 hr, 293FRT/TO; read-out: 24 hr Dox Inducible PD1FLFluc 293FRT/TO: Mean IC50
Description: FIp-In 293 T-REx™ cells were transfected with pcDNA™5/FRT/TO plasmid inserted with cDNA encoding Firefly Luciferase fused to the 3′ end of cDNA encoding full length PD1 (amino acids 1-288). Transfected cells were selected for resistance to the selectable markers Hygromycin and Blasticidin to create a stable cell line that contained the PD1-FL/Firefly Luciferase cDNA insert whose expression was regulated under the T-REx™ system. The day before assay, cells were trypsinized and plated in 384-well tissue culture plates. The next day, compound dilutions in DMSO/media containing doxycycline were added to the wells and incubated at 37° C., 5% CO2.
For chemical structures that include one or more stereoisomers, but are illustrated without indicating stereochemistry, the assay data refers to a mixture of stereoisomers.

[3] = test system: full length TNFα (amino acids 1-233) fused to Gaussia Luciferase; test: Dox Induced TNFα-FL-Gluc Assay; type: cell-based; settings: 24 hr, read-out: 24 hr Dox Inducible TNFaFLGluc 293FRT/TO: Mean IC50
Method in brief: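 Stable Flp-In 293 T-REx line expressing doxycycline-inducible full-length TNFα fused to Gaussia luciferase; cells plated the day before, then treated with compound dilutions in doxycycline-containing medium at 37° C, 5% CO2. Unspecified stereocentres mean stereoisomer mixtures were tested.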

[4] = test system: full length IL-2 (amino acids 1-153) fused to Gaussia Luciferase; test: Dox Induced IL2-FL-Gluc Assay; type: cell-based; settings: 24 hr, read-out: 24 hr Dox Inducible IL2FLGluc 293FRT/TO: Mean IC50
Method in brief: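 Flp-In 293 T-REx stable line expressing full-length IL-2 (aa 1-153) with C-terminal Gaussia luciferase fusion under doxycycline-inducible control. Cells plated the day before; compound dilutions added in DMSO/media containing doxycycline, incubated at 37° C, 5% CO2.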

[5] = test system: multiple myeloma cell line NCl-H929; test: H929 Cell Viability Assay; type: cell-based, human; settings: Homo sapiens, NCI-H929, 48 h
Method in brief: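 NCI-H929 myeloma cells in RPMI 1640 with 10% FBS were treated with compound dilutions for 48 h at 37 °C, and viability was then read by CellTiter-Glo luminescence. Compounds drawn without stereochemistry were tested as stereoisomer mixtures.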

[6] = test system: multiple myeloma cell line U266B1; test: U266 Cell Viability Assay; type: cell-based, human; settings: Homo sapiens, U-266, 48 hr
Method in brief: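 U266B1 myeloma cells in RPMI 1640 with 10% FBS were treated with compound dilutions for 48 h at 37° C, 5% CO2. Viability was read as CellTiter-Glo luminescence. Data for structures drawn without stereochemistry refer to stereoisomer mixtures.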

[7] = In Vitro Microsome Stability Assay (human); type: in vitro ADME
Method in brief: (§1)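 Species liver microsomes in potassium phosphate buffer were preincubated at 37 °C for 3–5 min with test compound (added from 0.25 mM DMSO stock), then started with NADPH. Samples at 0 and 30 min were quenched with acetonitrile containing internal standard and analysed by LC-MS/MS; % remaining at 30 min used analyte/IS AUC ratios relative to t=0.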

[8] = In Vitro Microsome Stability Assay (mouse); type: in vitro ADME
Method in brief: as §1

[9] = In Vitro Microsome Stability Assay (rat); type: in vitro ADME
Method in brief: as §1

[10] = In Vitro Microsome Stability Assay (monkey); type: in vitro ADME
Method in brief: as §1

[11] = test system: GM-CSF; test: Human PBMC Cytokine Assay: GM-CSF; type: cell-based; settings: anti-CD3/CD28 stimulation, 24 hours
Protocol: (§2) Human PBMC were freshly isolated from whole blood collections of 3 normal donors utilizing density gradient centrifugation followed by red blood cell lysis. PBMC from each donor were assayed separately. Cells were suspended in RPMI 1640 media supplemented with 5% fetal bovine serum, 2 mM L-glutamine, 10 mM HEPES, and 1× penicillin/streptomycin. PBMC were seeded at 200,000 cells/well in 96-well round-bottom plates either without stimulation or with stimulation by lipopolysaccharide (LPS, 1 μg/mL) or antibodies against human CD3 (plate-bound, 2 μg/mL) and human CD28 (soluble, 2 μg/mL). Serial dilutions of compound in DMSO/media were simultaneously added and PBMC were incubated at 37° C., 5% CO2 for 24 hours. After 24 hours, plates were centrifuged and half of the supernatant volume removed for cytokine analysis by electrochemiluminescent immunoassay (U-PLEX® Biomarker Multiplex, Meso Scale Discovery). For viability analysis, CellTiter-Glo® (Promega) was added to the remaining material in each well and quantified via luminescent plate reader.

[12] = test system: IFNγ; test: Human PBMC Cytokine Assay: IFNγ; type: cell-based; settings: anti-CD3/CD28 stimulation, 24 hours
Protocol: as §2

[13] = test system: IL-1β; test: Human PBMC Cytokine Assay: IL-1β; type: cell-based; settings: LPS stimulation, 24 hours
Protocol: as §2

[14] = test system: IL-2; test: Human PBMC Cytokine Assay: IL-2; type: cell-based; settings: anti-CD3/CD28 stimulation, 24 hours
Protocol: as §2

[15] = test system: IL-6; test: Human PBMC Cytokine Assay: IL-6; type: cell-based; settings: LPS stimulation, 24 hours
Protocol: as §2

[16] = test system: IL-23; test: Human PBMC Cytokine Assay: IL-23; type: cell-based; settings: LPS stimulation, 24 hours
Protocol: as §2

[17] = test system: TNFα; test: Human PBMC Cytokine Assay: TNFα; type: cell-based; settings: anti-CD3/CD28 stimulation, 24 hours
Protocol: as §2

[18] = test system: Human PBMC; test: Human PBMC CellTiter-Glo viability; type: cell-based; settings: no stimulation, 24 hours
Protocol: as §2

[19] = H929, read-out: 48 hr H929 Viability Celltiter-Glo: Mean EC50
[20] = U266, read-out: 48 hr U266 Viability Celltiter-Glo: Mean EC50

IC50 ([1]; 293FRT/TO) [nM]	IC50 [2] [nM]	IC50 ([3]; 293FRT/TO) [nM]	IC50 ([4]; 293FRT/TO) [nM]	EC50 [5, 19] [nM]	EC50 [6, 20] [nM]	Liver Microsome Stability-% Left after 30 min w/ NADPH (%) Human ([7]; human, 30 min, NADPH) [%]	Liver Microsome Stability-% Left after 30 min w/ NADPH (%) Mouse ([8]; mouse, 30 min, NADPH) [%]	Liver Microsome Stability-% Left after 30 min w/ NADPH (%) Rat ([9]; rat, 30 min, NADPH) [%]	Liver Microsome Stability-% Left after 30 min w/ NADPH (%) Monkey ([10]; monkey, 30 min, NADPH) [%]	SMILES	also measured
77.4	258	> 25000	248	> 25000	> 25000	56.3	53.7	55.7	60.6	C=C1CN(S(=O)(=O)c2ccc(N(C)C)cc2)CCCN(CC2CCCCC2)CCCN(S(=O)(=O)N2CC=C(c3ccc(Cl)cc3)CC2)C1 [A74, 4-[(5-{[4-(4-chlorophenyl)-1,2,3,6-tetrahydropyridin-1-yl]sulfonyl}-9-(cyclohexylmethyl)-3-methylidene-1,5,9-triazacyclododecan-1-yl)sulfonyl]-N,N-dimethylaniline]	–
104	256	3780	233	3030	> 25000	3.08	2.75	7.54	0.28	CN(C)c1ccc(S(=O)(=O)N2CCCN(CC3CCCCC3)CCCN(S(=O)(=O)N3CCC(c4ccccc4)CC3)C/C(=N/O)C2)cc1 [A75, 9-(cyclohexylmethyl)-1-((4-(dimethylamino)phenyl)sulfonyl)-5-((4-phenylpiperidin-1-yl)sulfonyl)-1,5,9-triazacyclododecan-3-one oxime]	–
> 25000	> 25000	> 25000	> 25000	> 25000	> 25000	53.1	28.6	33.9	35.7	C[C@@H]1CN(S(=O)(=O)c2ccc(N(C)C)cc2)CCCN(CC2CCCCC2)CCCN(S(=O)(=O)N2CCC(c3ccccc3)CC2)C1 [A76, 4-{[(3 R)-9-(cyclohexylmethyl)-3-methyl-5-[(4-phenylpiperidin-1-yl)sulfonyl]-1,5,9-triazacyclododecan-1-yl]sulfonyl}-N,N-dimethylaniline]	–
95	338	5540	360	4010	> 25000	30.1	37.3	32.5	20.8	C[C@H]1CN(S(=O)(=O)c2ccc(N(C)C)cc2)CCCN(CC2CCCCC2)CCCN(S(=O)(=O)N2CCC(c3ccccc3)CC2)C1 [A77, 4-{[(3S)-9-(cyclohexylmethyl)-3-methyl-5-[(4-phenylpiperidin-1-yl)sulfonyl]-1,5,9-triazacyclododecan-1-yl]sulfonyl}-N,N-dimethylaniline]	–
–	–	–	–	–	–	–	–	–	–	Cc1ccccc1CN1CCCN(S(=O)(=O)c2ccc(N(C)C)cc2)C[C@H](C)CN(S(=O)(=O)N2CCc3cc(Cl)ccc3C2)CCC1 [A133, 4-{[(3S)-5-[(6-chloro-1,2,3,4-tetrahydroisoquinolin-2-yl)sulfonyl]-3-methyl-9-[(2-methylphenyl)methyl]-1,5,9-triazacyclododecan-1-yl]sulfonyl}-N,N-dimethylaniline]	IC50 ([1]; Dox inducible, 293FRT/TO cells): 36.8 nM; IC50 ([3]; Dox inducible, 293FRT/TO cells): 749 nM; IC50 ([4]; Dox inducible, 293FRT/TO cells): 135 nM; EC50 ([5]; H929, Celltiter-Glo): 5120 nM; EC50 ([6]; U266, Celltiter-Glo): > 25000 nM; Liver Microsome Stability-% Left after 30 min w/ NADPH (%) Human ([7]; human liver microsomes, 30 min w/ NADPH): 71.3%; Liver Microsome Stability-% Left after 30 min w/ NADPH (%) Mouse ([8]; mouse liver microsomes, 30 min w/ NADPH): 82.2%; Liver Microsome Stability-% Left after 30 min w/ NADPH (%) Rat ([9]; rat liver microsomes, 30 min w/ NADPH): 87.3%; Liver Microsome Stability-% Left after 30 min w/ NADPH (%) Monkey ([10]; monkey liver microsomes, 30 min w/ NADPH): 67.3%; IC50 [11]: 404 nM; IC50 [12]: 234 nM; IC50 [13]: > 25000 nM; IC50 [14]: 197 nM; IC50 [15]: 193 nM; IC50 [16]: 1050 nM; IC50 [17]: 216 nM; IC50 [18]: > 25000 nM
